US20200163984A1, “USE OF ISOVALERYL SPIRAMYCIN I, II AND/OR III IN MANUFACTURING MEDICAMENT FOR TREATING AND/OR PREVENTING TUMOR, AND MEDICAMENT” (SHENYANG FUYANG PHARMACEUTICAL TECHNOLOGY CO., LTD., priority 2017, published 2020)
Like-named read-outs stand apart in the source and are kept apart here.

Experiments:
[1] = tested on: transplanted tumor of human non-small cell lung cancer cell H1299
Method: (§1) Then cell concentration was adjusted to 1×10^7/ml with matrigel, then each nude mouse was inoculated subcutaneously with 0.2 ml of cells at its right armpit and recorded as the first day of inoculation. When the tumor grows to be greater than or equal to 100 mm^3, the mice were randomly divided into 11 groups with 6 mice in each group: isovaleryl spiramycin I groups with doses of 25, 50 and 100 mg/kg, isovaleryl spiramycin II groups with doses of 25, 50 and 100 mg/kg, and isovaleryl spiramycin III groups with doses of 25, 50 and 100 mg/kg. Each group was continuously administered intragastrically for 30 days with a dose of 20 ml/kg. The mice were sacrificed the next day after drug withdrawal and the indicators were tested. The long diameter and short diameter of the tumor, and the body weight of each mouse were recorded every 3 days from drug administration to nude mouse sacrifice.
(§2) The body weight of the nude mice and the long diameter (a) and short diameter (b) of the transplanted tumor were measured every 3 days, and the tumor volume (v), relative tumor volume (RTV) and relative tumor proliferation rate (T/C) are calculated respectively according to the following formulas, wherein V=a×b^2/2; RTV=V/V0 (V0 is the tumor volume before administration, V is the tumor volume before sacrifice), and T/C (%)=treatment group RTV/model control group RTV×100%.
(§3) Each mouse was weighed and sacrificed. After the tumor was completely stripped off from the body of the mouse, the non-tumor tissues such as blood stains and fat were removed to weigh the tumor and calculate the tumor growth inhibition rate. The average tumor weight of each group of mice is used as an indicator of efficacy. Tumor growth inhibition rate (%)=(1−the average tumor weight of the treatment group/the average tumor weight of the model group)×100%.

[2] = tested on: transplanted tumor of human gastric adenocarcinoma cell SGC7901; assay: SGC7901 transplanted tumor in nude mice
Method: as §1, with “group: a model group, a cyclophosphamide group,” for “group:”
as §2, §3

[3] = tested on: transplanted tumor of human hepatoma cell HepG-2; assay: HepG-2 transplanted tumor in nude mice; details: for Tumor Volume (mm3) (d 1): d1
Method: as §1, with “group: a model group, a cyclophosphamide group,” for “group:”
as §2, §3

[4] = H1299, 25 mg/kg (low dose) i.g. 30 days
[5] = H1299, 50 mg/kg (medium dose) i.g. 30 days
[6] = H1299, 100 mg/kg (high dose) i.g. 30 days
[7] = SGC7901, 12.5 mg/kg (low dose) i.g. 30 days
[8] = SGC7901, 25 mg/kg (medium dose) i.g. 30 days
[9] = SGC7901, 50 mg/kg (high dose) i.g. 30 days
[10] = HepG-2, high dose (100 mg/kg in method) i.g. 30 days
[11] = HepG-2, low dose (25 mg/kg in method) i.g. 30 days
[12] = HepG-2, medium dose (50 mg/kg in method) i.g. 30 days

mouse weight compared with the model group ([1]; mouse, in vivo): no significant changes | mouse weight compared with the model group ([2]; mouse, in vivo): no significant changes | mouse weight compared with the model group ([3]; mouse, in vivo): no significant changes
Structure (SMILES): CO[C@@H]1[C@@H](O[C@@H]2O[C@H](C)[C@@H](O[C@H]3C[C@@](C)(O)[C@@H](OC(=O)CC(C)C)[C@H](C)O3)[C@H](N(C)C)[C@H]2O)[C@@H](CC=O)C[C@@H](C)[C@@H](O[C@H]2CC[C@H](N(C)C)[C@@H](C)O2)/C=C/C=C/C[C@@H](C)OC(=O)C[C@H]1O [Isovaleryl spiramycin I, isovaleryl spiramycin I]
Inhibition Rate (tumor growth inhibition rate) [1, 4]: 22.11% | Relative Tumor Proliferation Rate (T/C) [1, 4]: 89.42% | Relative Tumor Volume (RTV) [1, 4]: 11.46 ± 3.83 | Tumor Volume (d 1) [1, 4]: 136.07 ± 17.13 mm3 | Tumor Volume (d 30) [1, 4]: 1513.14 ± 387.19 mm3 | Tumor Weight [1, 4]: 1.36 ± 0.33 g | Inhibition Rate (tumor growth inhibition rate) [1, 5]: 43.83% | Relative Tumor Proliferation Rate (T/C) [1, 5]: 49.81% | Relative Tumor Volume (RTV) [1, 5]: 6.39 ± 1.01 | Tumor Volume (d 1) [1, 5]: 135.51 ± 20.47 mm3 | Tumor Volume (d 30) [1, 5]: 861.71 ± 164.32 mm3 | Tumor Weight [1, 5]: 0.98 ± 0.27 g | Inhibition Rate (tumor growth inhibition rate) [1, 6]: 69.95% | Relative Tumor Proliferation Rate (T/C) [1, 6]: 27.43% | Relative Tumor Volume (RTV) [1, 6]: 3.52 ± 0.68 | Tumor Volume (d 1) [1, 6]: 137.34 ± 22.95 mm3 | Tumor Volume (d 30) [1, 6]: 470.36 ± 21.77 mm3 | Tumor Weight [1, 6]: 0.52 ± 0.21 g | tumor volume and relative tumor volume compared with the model group ([1]; H1299, low, medium and high doses, P<0.05): significantly lower | Inhibition Rate (tumor growth inhibition rate) [2, 7]: 31.56% | Relative Tumor Proliferation Rate (T/C) [2, 7]: 61.13% | Relative Tumor Volume (RTV) [2, 7]: 5.37 ± 3.46 | Tumor Volume (d 1) [2, 7]: 412.96 ± 157.62 mm3 | Tumor Volume (d 30) [2, 7]: 2815.50 ± 770.23 mm3 | Tumor Weight [2, 7]: 1.07 ± 0.53 g | Inhibition Rate (tumor growth inhibition rate) [2, 8]: 53.13% | Relative Tumor Proliferation Rate (T/C) [2, 8]: 42.67% | Relative Tumor Volume (RTV) [2, 8]: 3.98 ± 2.78 | Tumor Volume (d 1) [2, 8]: 258.63 ± 104.26 mm3 | Tumor Volume (d 30) [2, 8]: 1230.76 ± 635.23 mm3 | Tumor Weight [2, 8]: 0.74 ± 0.52 g | Inhibition Rate (tumor growth inhibition rate) [2, 9]: 70.78% | Relative Tumor Proliferation Rate (T/C) [2, 9]: 20.23% | Relative Tumor Volume (RTV) [2, 9]: 3.64 ± 1.65 | Tumor Volume (d 1) [2, 9]: 279.56 ± 156.70 mm3 | Tumor Volume (d 30) [2, 9]: 630.69 ± 458.86 mm3 | Tumor Weight [2, 9]: 0.46 ± 0.36 g | tumor volume and relative tumor volume compared with the model group ([2]; SGC7901, low, medium and high doses, P<0.05): significantly lower | Relative Tumor Proliferation Rate (T/C) [3, 10]: 27.49% | tumor growth inhibition rate [3, 10]: 68.22% | Relative Tumor Proliferation Rate (T/C) [3, 11]: 65.03% | tumor growth inhibition rate [3, 11]: 24.43% | tumor volume and relative tumor volume compared with the model group ([3]; HepG-2, low, medium and high doses, P<0.05): significantly lower | Relative Tumor Proliferation Rate (T/C) [3, 12]: 42.12% | tumor growth inhibition rate [3, 12]: 57.93% | Inhibition Rate (%) ([3]; HepG-2 nude mice, 25 mg/kg): 24.43% | Relative Tumor Proliferation Rate (T/C) ([3]; HepG-2 nude mice, 25 mg/kg): 65.03% | Relative Tumor Volume (RTV) ([3]; HepG-2 nude mice, 25 mg/kg): 10.89 ± 2.67 | Tumor Weight ([3]; HepG-2 nude mice, 25 mg/kg): 1.84 ± 0.23 g | Tumor Volume (mm3) (d 1) ([3]; HepG-2 nude mice, 25 mg/kg): 114.02 ± 11.68 mm3 | Tumor Volume (mm3) (d30) ([3]; HepG-2 nude mice, 25 mg/kg): 1248.33 ± 337.59 mm3 | Inhibition Rate (%) ([3]; HepG-2 nude mice, 50 mg/kg): 57.93% | Relative Tumor Proliferation Rate (T/C) ([3]; HepG-2 nude mice, 50 mg/kg): 42.12% | Relative Tumor Volume (RTV) ([3]; HepG-2 nude mice, 50 mg/kg): 7.05 ± 3.35 | Tumor Weight ([3]; HepG-2 nude mice, 50 mg/kg): 1.02 ± 0.45 g | Tumor Volume (mm3) (d 1) ([3]; HepG-2 nude mice, 50 mg/kg): 122.31 ± 4.68 mm3 | Tumor Volume (mm3) (d30) ([3]; HepG-2 nude mice, 50 mg/kg): 851.37 ± 371.80 mm3 | Inhibition Rate (%) ([3]; HepG-2 nude mice, 100 mg/kg): 68.22% | Relative Tumor Proliferation Rate (T/C) ([3]; HepG-2 nude mice, 100 mg/kg): 27.49% | Relative Tumor Volume (RTV) ([3]; HepG-2 nude mice, 100 mg/kg): 4.60 ± 3.39 | Tumor Weight ([3]; HepG-2 nude mice, 100 mg/kg): 0.77 ± 0.44 g | Tumor Volume (mm3) (d 1) ([3]; HepG-2 nude mice, 100 mg/kg): 110.06 ± 9.58 mm3 | Tumor Volume (mm3) (d30) ([3]; HepG-2 nude mice, 100 mg/kg): 481.16 ± 326.94 mm3 | Body Weight (g) (d1) ([3]; mouse, in vivo, 25 mg/kg): 21.36 ± 1.67 g | Body Weight (g) (d30) ([3]; mouse, in vivo, 25 mg/kg): 23.24 ± 1.33 g | Body Weight (g) (d1) ([3]; mouse, in vivo, 50 mg/kg): 21.47 ± 1.58 g | Body Weight (g) (d30) ([3]; mouse, in vivo, 50 mg/kg): 23.64 ± 1.67 g | Body Weight (g) (d1) ([3]; mouse, in vivo, 100 mg/kg): 21.37 ± 1.36 g | Body Weight (g) (d30) ([3]; mouse, in vivo, 100 mg/kg): 22.867 ± 1.57 g
